Source: PMC4857087, “A potential adjuvant chemotherapeutics, 18β-glycyrrhetinic acid, inhibits renal tubular epithelial cells apoptosis via enhancing BMP-7 epigenetically through targeting HDAC2” (Scientific Reports, 2016)
pKd: −log10 of the molar value.

How the values were obtained:
HDAC2 = HDAC2 (Homo sapiens, UniProt Q92769); experiment: SPR (Biacore T200, HDAC2 immobilized on CM5 chip, […] Langmuir fit); type: binding
HK2 = experiment: cells; set-up: species or system mTEC; antiproliferative activity on renal tubular epithelial cells, 48 h; conditions: Homo sapiens, HK-2, 48 h
Protocol: GA could be transformed into 18β-glycyrrhetinic acid (18βGA) via biotransformation. At first, compounds GA and 18βGA were evaluated for their antiproliferative activities against mTEC and HK2 cell lines. The cells were allowed to proliferate in the presence of tested material for 48 h, and the results were reported in terms of IC50 values (Supplementary Table S2). […] Thus we chose GA 0.05, 0.1, 0.2, 0.4, 0.8 mM and 18βGA 2.5, 5, 10, 20, 30 μM to further evaluate the roles on KIM-1. […] Thus, 18βGA was chosen to discuss the mechanisms in AKI induced by CP. Cisplatin (CP), glycyrrhizic acid ammonium salt (GA), 18β-glycyrrhetinic acid (18βGA), Dimethyl sulfoxide (DMSO), MTT (3-(4, 5-dimethylthiazol-2-yl)-2, 5-diphenyltetrazoliumbromide) and all other chemicals were obtained from Sigma-Aldrich (St. Louis, MO, USA). BMP-7, KIM-1, Bcl-2 and Bax antibodies were purchased from Santa Cruz (CA, USA). β-actin antibody and secondary antibodies for goat anti-rabbit IgG HRP and rabbit anti-goat IgG HRP were purchased from Bioworld Technology (Nanjing, China). Creatinine (Cr) and Blood Urea Nitrogen (BUN) assay kit were purchased from Siemens (NY, USA).

Sequence of HDAC2 (Q92769 whole entry): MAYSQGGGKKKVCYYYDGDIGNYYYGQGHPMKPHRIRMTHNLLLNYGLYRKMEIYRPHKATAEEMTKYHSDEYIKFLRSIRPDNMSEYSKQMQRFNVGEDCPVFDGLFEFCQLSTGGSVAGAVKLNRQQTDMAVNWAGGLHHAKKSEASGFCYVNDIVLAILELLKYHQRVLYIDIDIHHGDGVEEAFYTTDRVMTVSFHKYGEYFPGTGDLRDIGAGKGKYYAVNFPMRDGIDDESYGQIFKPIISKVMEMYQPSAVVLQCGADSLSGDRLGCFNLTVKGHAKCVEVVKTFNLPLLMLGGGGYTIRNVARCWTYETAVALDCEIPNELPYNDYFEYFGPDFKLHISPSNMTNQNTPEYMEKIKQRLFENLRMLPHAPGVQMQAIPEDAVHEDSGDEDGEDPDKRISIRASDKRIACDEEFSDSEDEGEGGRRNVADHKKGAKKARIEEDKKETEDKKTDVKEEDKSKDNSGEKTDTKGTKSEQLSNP

pKd (HDAC2): 6.21
SMILES: CC1(C)[C@@H](O)CC[C@]2(C)[C@H]3C(=O)C=C4[C@@H]5C[C@@](C)(C(=O)O)CC[C@]5(C)CC[C@@]4(C)[C@]3(C)CC[C@@H]12 [18βGA, 18β-glycyrrhetinic acid]
IC50 (HK2): 0.073 mM
